# Marks after values point to notes of the source that are not given here.
# Tests used:
# J774A.1 cells = conditions: positive control, 2 mM hydrogen peroxide, 4 h
# Protocol: (§1) The mouse macrophage cell line J774A.1 was grown in Dulbecco’s modified Eagle medium (DMEM) (Thermo Fisher Scientific, Waltham, MA) supplemented with 4.5 g/ml glucose, 10% fetal bovine serum (FBS), and 100 U/ml penicillin-streptomycin (Sigma-Aldrich, St. Louis, MO). HL60 (ATCC CCL240) cells were obtained from the American Type Culture Collection and cultured in Iscove’s modified Dulbecco’s medium (Sigma-Aldrich) supplemented with 20% fetal bovine serum (FBS) (Sigma-Aldrich).
# (§2) The apoptotic activity of the compounds was determined using the phycoerythrin (PE) annexin V/dead cell apoptosis kit with Sytox green for flow cytometry (Invitrogen, Carlsbad, CA). Cells were grown in 12-well flat-bottom microtiter plates at an initial density 2 × 10^5 cells in 1.5-ml medium per well for 24 h. Following the incubation period, spent medium was replaced with fresh medium containing the desired concentration of the test compound and incubated for another 18 h. After trypsinization, cells were harvested by centrifuging at 250 × g for 4 min, and the cell pellet was suspended in 100 μl of binding buffer supplemented with 1 μl Sytox and 5 μl annexin V, followed by incubation at 37°C for 15 min. Samples were then diluted by adding 400-μl binding buffer, and flow cytometry was performed using a FACScalibur flow cytometer (Becton, Dickinson, Franklin Lakes, NJ), measuring the fluorescence emissions at 530 nm and 575 nm.
# TIGK cells = conditions: positive control, 2 mM hydrogen peroxide, 4 h;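 further: flow cytometry of cells stained with PE annexin V plus Sytox green, with untreated or 0.1% DMSO-exposed cells as negative controls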
# Protocol: as §1, §2
# HL60 cells = conditions: HL60, positive control, 2 mM hydrogen peroxide, 4 h
# Protocol: as §1, §2
smiles,measurement,setting,value
"OO [Medium/H2O2, hydrogen peroxide, reference compound]",Early apoptosis (%),J774A.1 cells,1.3%
same,Late apoptosis/necrosis (%),J774A.1 cells,34.7%
same,Live cells (%),J774A.1 cells,41.9%
same,Early apoptosis (%),TIGK cells,4.9%
same,Late apoptosis/necrosis (%),TIGK cells,21.9* %
same,Live cells (%),TIGK cells,56.6%
same,Early apoptosis (%),HL60 cells,12.3%
same,Late apoptosis/necrosis (%),HL60 cells,31.4%
same,Live cells (%),HL60 cells,52.7%
